The record followed here is US20250115582A1, “MOLECULAR GLUE DEGRADERS AND METHODS OF USING THE SAME” (Monte Rosa Therapeutics, Inc., priority 2022, published 2025).

For one experiment, the system named is LS180. The experiment can be described thus: GI50 growth inhibition, CyQUANT, LS180. It is filed as cell-based. The note with it: Homo sapiens, LS180 cells, 120 to 168 hours. As for the experimental part:
SKCO1, LS180, and LS174T cell lines were purchased from ATCC. CW2 cell line was purchased from Riken. GP2D cell line was purchased from Sigma/ECACC. All cell lines were cultured in manufacturer's recommended media at 37° C., 5% CO2. Briefly, cells were suspended in 200 μL of media and seeded at 300 to 1,800 cells per well in tissue culture treated 96-well plates with black walls and clear bottom. Plates were incubated overnight and initial (T0) read was performed the following day using CyQUANT Direct Cell Proliferation Assay Kit (Thermo Fisher Scientific) according to manufacturer's protocol. All compounds were solubilized in DMSO and prepared at 3-fold serial dilution, using 9 points starting at 30 μM as highest concentration, administered to cells and incubated for 120 to 168 hours, at which point CyQUANT assay measurement was performed using Acumen Cellista instrument (Ex/Em 480/520 nm). Media-only wells were used as blank, and 0.3% DMSO was used as DMSO-treated cell control. Growth inhibition (percent response) was calculated using the following formula in Excel: “=if ([Compound treated Day N]>[Untreated Day 0, AVG], ([Compound treated Day N]−[Untreated Day 0, AVG])/([Untreated Day N]−[Untreated Day 0, AVG])*100, ([Compound Treated Day N]−[Untreated Day 0, AVG])/([Untreated Day 0, AVG])*100)”. GI50 is the response corresponding to the 50% of untreated control.
GI50 data are reported in Tables 4a, 4b, 4c, 4d, and 4e for compounds in Table 1. In Tables 4a, 4b, 4c, 4d, and 4e below, According to the code, A represents a GI50 value of ≤0.1 μM, B represents a GI50 value>0.1 μM and ≤1 μM, C represents an GI50 value>1 μM.

The target of another experiment is CRBN/DDB1 (Homo sapiens, UniProt Q96SW2). The experiment can be described thus: HTRF binding assay (thalidomide probe displacement from CRBN/DDB1). The note with it: CRBN/DDB1 2.5 nM, Cy5-Thalidomide 100 nM, 30 min; geometric mean; read-out: HTRF_Thali_Disp_DR—geo_IC50. Put shortly: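 Displacement of Cy5-thalidomide probe (100 nM) from CRBN/DDB1 (2.5 nM) with anti-His Tb cryptate in 20 mM HEPES, 20 mM NaCl, 0.2 mM TCEP, 0.2 mM EDTA, 0.005% Tween20; 10-point 1:3 series, 30 min ambient. HTRF 665/620 ratio; IC50 by 4-parameter fit, Ki via Cheng-Prusoff.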
Sequence of CRBN/DDB1 (Q96SW2 whole entry): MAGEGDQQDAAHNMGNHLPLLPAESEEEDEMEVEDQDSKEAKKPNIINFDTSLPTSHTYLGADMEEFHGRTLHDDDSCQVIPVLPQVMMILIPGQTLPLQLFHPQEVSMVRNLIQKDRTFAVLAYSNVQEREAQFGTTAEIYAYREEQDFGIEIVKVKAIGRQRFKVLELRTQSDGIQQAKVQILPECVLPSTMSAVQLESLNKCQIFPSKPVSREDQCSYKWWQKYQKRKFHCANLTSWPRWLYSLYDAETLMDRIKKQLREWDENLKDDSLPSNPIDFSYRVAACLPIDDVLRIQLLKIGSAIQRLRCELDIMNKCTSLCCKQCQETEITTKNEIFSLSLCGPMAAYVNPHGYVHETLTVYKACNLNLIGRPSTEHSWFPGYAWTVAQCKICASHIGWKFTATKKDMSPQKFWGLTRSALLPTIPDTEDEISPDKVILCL
Sequence of CRBN/DDB1 (Q16531 whole entry partner): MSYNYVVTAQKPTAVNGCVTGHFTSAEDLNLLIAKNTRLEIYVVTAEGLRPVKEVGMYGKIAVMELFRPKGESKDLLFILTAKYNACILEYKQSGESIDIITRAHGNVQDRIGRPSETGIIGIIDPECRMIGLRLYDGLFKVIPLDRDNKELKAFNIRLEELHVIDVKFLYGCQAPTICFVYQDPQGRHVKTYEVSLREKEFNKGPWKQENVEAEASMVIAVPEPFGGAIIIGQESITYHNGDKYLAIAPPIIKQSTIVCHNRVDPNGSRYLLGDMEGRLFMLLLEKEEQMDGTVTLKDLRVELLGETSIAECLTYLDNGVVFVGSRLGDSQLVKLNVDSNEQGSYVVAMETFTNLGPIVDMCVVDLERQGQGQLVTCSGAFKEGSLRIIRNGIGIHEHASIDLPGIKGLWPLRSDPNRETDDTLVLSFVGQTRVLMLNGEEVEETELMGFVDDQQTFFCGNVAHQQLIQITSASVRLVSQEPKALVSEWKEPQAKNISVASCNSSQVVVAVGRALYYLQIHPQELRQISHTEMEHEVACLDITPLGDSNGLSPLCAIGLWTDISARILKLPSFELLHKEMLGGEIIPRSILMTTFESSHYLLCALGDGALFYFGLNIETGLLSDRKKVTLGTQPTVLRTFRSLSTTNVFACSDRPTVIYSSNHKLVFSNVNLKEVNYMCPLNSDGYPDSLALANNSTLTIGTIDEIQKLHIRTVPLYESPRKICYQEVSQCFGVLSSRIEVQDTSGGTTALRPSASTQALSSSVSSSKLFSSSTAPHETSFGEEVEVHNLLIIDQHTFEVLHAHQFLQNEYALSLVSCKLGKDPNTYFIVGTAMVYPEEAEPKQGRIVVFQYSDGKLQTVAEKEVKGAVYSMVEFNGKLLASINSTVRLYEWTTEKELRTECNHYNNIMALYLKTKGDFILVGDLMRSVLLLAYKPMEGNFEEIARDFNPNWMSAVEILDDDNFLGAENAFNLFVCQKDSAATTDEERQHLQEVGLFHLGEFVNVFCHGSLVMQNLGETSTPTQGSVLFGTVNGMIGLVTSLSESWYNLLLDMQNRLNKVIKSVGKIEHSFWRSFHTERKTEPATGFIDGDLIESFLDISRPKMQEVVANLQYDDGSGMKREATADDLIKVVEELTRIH

Some results are limits rather than exact numbers.

`O=C1CCC(N2Cc3cc(NC(=O)c4ccc(Cl)cc4)ccc3C2=O)C(=O)N1` (stereo not shown) [Compound 147] displayed a GI50 in the experiment on LS180 above 1 µM. Further, the IC50 on CRBN/DDB1 lay in the range of 0.1 to 1 µM.

In turn, `O=C1CCC(N2Cc3cc(NC(=O)c4ncn(-c5ccccc5)c4C(F)(F)F)ccc3C2=O)C(=O)N1` (stereo not shown) [Compound 154, N-(2-(2,6-dioxopiperidin-3-yl)-1-oxoisoindolin-5-yl)-1-phenyl-5-(trifluoromethyl)-1H-imidazole-4-carboxamide] displayed a GI50 in the experiment on LS180 of 0.1 to 1 µM. The IC50 on CRBN/DDB1 is 0.1 to 1 µM.

The GI50 is the concentration giving 50% growth inhibition. Read a low GI50 as more potent growth inhibition.
